Experimental data from patent US8357365B2, “Granulysin peptides and methods of use thereof” (The Regents of the University of California, priority 2005, dated 2013).
“Also recorded” adds a separate entry of the source.

Columns and labels:
Escherichia coli = details: earlier study, Ernst et al., 2000; cited from earlier work
[1] = system: Mycobacterium tuberculosis; details: earlier study, Ernst et al., 2000; cited from earlier work
[2] = system: Propionibacterium acnes strain ATCC 6919; test: CFU assay of antimicrobial activity against P. acnes; assay type: cell-based; details: for reduction of the number of viable P. acnes: 100 μM of peptide (FIG. 1B)
Description: CFU assay. The CFU assay was performed as described previously (Ernst et al., (2000) Immunol 165:7102-7108). Propionibacterium acnes strain ATCC 6919 (American Type Cell Culture, Manassas, Va.) was grown under anaerobic conditions in Reinforced Clostridial Medium (Oxoid, Basingstroke, England) for two days and collected in mid-log phase. The bacteria were washed three times with the assay buffer, 10 mM sodium phosphate, pH 7.2, supplemented with 0.03% trypticase soy broth (TSB, Becton-Dickinson, Cockeysville, Md.), and enumerated by applying a conversion factor of 7.5×10^7 bacteria/mL=1 OD unit at 600 nm. Various concentrations of granulysin or granulysin peptides were incubated with 3.75×10^5 bacteria in a final volume of 30 μL at 37° C. for four hours. […] Plates were incubated for four days at 37° C. under anaerobic conditions, then individual colonies were counted and the number of CFU per tube was calculated.

MCP-1 = test: Cytokine array, P. acnes-stimulated monocytes, MCP-1; assay type: cell-based, human
Description: (§1) Primary Human Monocyte Isolation and Stimulation. Peripheral human blood was drawn from normal healthy volunteers into heparinized tubes according to a protocol approved by the Institutional Review Board at UCLA. PBMCs were then isolated on Ficoll-Paque gradients (Pharmacia, Piscataway, N.J.) and plated (5×10^5/well) in 96-well plates for 2 hours in 1% FCS (Omega Scientific, Tarzana, Calif.). Non-adherent cells were removed by washing 3 times with RPMI media, leaving adherent cells. Adherent monocytes were cultured in 10% FCS with P. acnes sonicate, granulysin peptides, or P. acnes sonicate together with various concentrations of granulysin peptide for 24 hours at 37° C. Monocyte supernatants were harvested and assayed for IL-12p40 using cytokine-specific, commercially available antibody pairs in a standard sandwich ELISA (Biosource International, Camarillo, Calif., or BD PharMingen, San Diego, Calif.). […] The absorbance at 405 nm was read using a microtiter plate reader, and cytokine concentrations were calculated from a standard curve of recombinant cytokine (Biosource or Pharmingen). […]

MDC = test: Cytokine array, P. acnes-stimulated monocytes, MDC; assay type: cell-based, human
Description: as §1

[3] = system: inflammatory cytokines and chemokines; test: P. acnes-stimulated production of cytokines and chemokines by monocytes; assay type: cell-based; details: primary human monocytes (FIG. 5)
Description: Primary Human Monocyte Isolation and Stimulation. Peripheral human blood was drawn from normal healthy volunteers into heparinized tubes according to a protocol approved by the Institutional Review Board at UCLA. PBMCs were then isolated on Ficoll-Paque gradients (Pharmacia, Piscataway, N.J.) and plated (5×10^5/well) in 96-well plates for 2 hours in 1% FCS (Omega Scientific, Tarzana, Calif.). Non-adherent cells were removed by washing 3 times with RPMI media, leaving adherent cells. Adherent monocytes were cultured in 10% FCS with P. acnes sonicate, granulysin peptides, or P. acnes sonicate together with various concentrations of granulysin peptide for 24 hours at 37° C. Monocyte supernatants were harvested and assayed for IL-12p40 using cytokine-specific, commercially available antibody pairs in a standard sandwich ELISA (Biosource International, Camarillo, Calif., or BD PharMingen, San Diego, Calif.). Capture antibodies were coated to 96-well EIA/RIA plates (Costar, Corning) and detection was achieved by incubating with biotinylated antibodies followed by Immunopure HRP-conjugated streptavidin (Pierce, Rockford, Ill.) and the ABTS Microwell Peroxidase Substrate System (Kirkegaard & Perry Laboratories, Gaithersburg, Md.). The absorbance at 405 nm was read using a microtiter plate reader, and cytokine concentrations were calculated from a standard curve of recombinant cytokine (Biosource or Pharmingen). Supernatants were assayed for other cytokines using Pierce SearchLight Multiplex Cytokine array services (Pierce Biotechnology, Woburn, Mass.).

IP-10 = test: Cytokine array, P. acnes-stimulated monocytes, IP-10; assay type: cell-based, human
Description: as §1

P. acnes = test: Scanning and transmission electron microscopy of peptide-treated P. acnes; assay type: cell-based, Propionibacterium acnes; details: 1 hour to 72 hours of peptide treatment (FIG. 2B, 2C)
Description: Electron microscopy. P. acnes at a concentration of 2.08×10^7 bacteria/mL was suspended in 10 mM sodium phosphate buffer pH 7.2 supplemented with 0.03% TSB and incubated with […] granulysin peptides. Samples were then fixed for 30 minutes with 2% gluteraldehyde in 1×PBS, pH=7.35, room temperature, then washed three times and suspended in 1 mL 1×PBS. Scanning EM samples were filtered onto a micropore filter. The filters with the sample on top were dehydrated in graded ethanol; 50, 75, 95 and 100%-15 minutes in each, followed by similar transfers in hexa-methyl-disilazane reagent; 50, 75, 95%-30 minutes each followed by 100% hexa-methyl-disilazane reagent overnight. The scanning EM samples were gold coated and then viewed and photographed on a Cambridge Scanning electron microscope. Transmission EM samples were dehydrated in graded ethanol as above, embedded in Epon, and sectioned on Sorvall MT6000 (RMC, Tucson Ariz.). Thin sections ([…]) were stained with uranyl acetate, viewed and photographed on Jeol XC100 at 80-kV

IL-12p40 = IL-12p40 ELISA, P. acnes-stimulated primary human monocytes; assay type: cell-based; details: compared to peptides 1-20 and 16-35 (FIG. 5A)
Description: as §1

| Sequence | killing of Escherichia coli (Escherichia coli) | killing of Mycobacterium tuberculosis [1] | P. acnes-stimulated production of cytokines and chemokines [3] | reduction of the number of viable P. acnes [2] [logs] | other results |
| --- | --- | --- | --- | --- | --- |
| TGRSRWRDVSRNFMRRYQSRVIQGLVAGETAQQIS [36-70] | capable of killing | capable of killing |  |  |  |
| TRVSRTGRSRWRDWSRNFMR [31-50v44w] |  |  | inhibit |  | fewer bacteria as compared to incubation with peptide 31-50 ([2]; 32 μM of peptide (FIG. 2A)): 2-3 logs; production of MCP-1 (MCP-1): inhibited; production of MDC (MDC): inhibited; production of IP-10 (IP-10): inhibited; effect on P. acnes surface by scanning and transmission EM (P. acnes): perturbs the surface integrity of P. acnes; P. acnes-stimulated production of IL-12p40 (IL-12p40): decreased |
| TRVSRTGRSRWRDVSRNFMR [31-50] | capable of killing | capable of killing | inhibit | 4 |  |
| TRVSRTGRSRWRDWSRNFMR [D-31-50v44w] (all D-amino acids) |  |  | decreased; also recorded: inhibit |  | antimicrobial potency in vitro as compared to 31-50v44w (D versus L form) ([2]; P. acnes): even greater potency; kind of antimicrobial activity against P. acnes (bacteriostatic or bactericidal) ([2]; comparison with widely used antibiotics (FIG. 3C)): bactericidal |
| GRDYRTSLTIVQKLKKMVDKPTQRSVSNAATRVSR [1-35] | capable of killing | capable of killing |  | 2 |  |
